{
  "source": "patent US20100143452A1",
  "about": "“POLYPHENOL CONTAINING COMPOSITIONS” (Universiteit Utrecht Holding B.V., priority 2006, published 2010)",
  "key": {"[1]": {"test_system": "B16 murine melanoma and C26 murine colon carcinoma", "test": "tumor growth in B16 or C26-tumor bearing mice", "type": "in vivo", "conditions": "i.v. 20 mg/kg, between day 7 and day 14, after a second injection at day 7", "method": "B16 murine melanoma and C26 murine colon carcinoma cells were cultured at 37° C. in a 5% CO2-containing humidified atmosphere in DMEM medium (Gibco, Breda, The Netherlands) containing 10% (v/v) fetal calf serum supplemented with 2 mM L-glutamine, 100 IU/ml penicillin, 100 microgram/ml streptomycin and 0.25 microgram/ml amphotericin B (Gibco). Male Balb/c and C57B1/6 mice (6-8 weeks of age) were obtained from Charles River, kept in standard housing with standard rodent chow and water available ad libitum, and a 12 h light/dark cycle. Experiments were performed according to national regulations and approved by the local animal experiments ethical committee. Mice received a single intravenous injection of an indicated dose of free caffeic acid or liposomal caffeic acid prepared in Example 1 at the time when the tumor became palpable. At 7 days after treatment, tumor size was measured and tumor volume calculated according to the equation V=0.52×a^2×b, wherein a is the smallest and b is the largest superficial diameter. […] Tumor size was measured regularly, and tumor volume was calculated as described above. For the statistical analysis, data were analysed by one-way ANOVA with Dunnett's post test using GraphPad InStat version 3.05 for Windows, GraphPad Software (San Diego, USA). […] Spearman rank correlation coefficient was calculated to identify dose-response. […]"}, "cells": {"test_system": "cells", "conditions": "80 micomoles of naringenin per liter, for 24 hours; cited from earlier work"}, "[2]": {"conditions": "oral ingestion, best case scenario; cited from earlier work"}, "[3]": {"conditions": "dietary (ingested) polyphenols; cited from earlier work"}},
  "data": [
    {"smiles": "O=C(O)/C=C/c1ccc(O)c(O)c1", "note": "[free caffeic acid, caffeic acid]", "values": [
      {"measurement": "effect on tumor volume", "setting": "[1]", "result": "did not reduce tumor volume"}
    ]},
    {"smiles": "O=C1C[C@@H](c2ccc(O)cc2)Oc2cc(O)cc(O)c21", "note": "[naringenin]", "values": [
      {"measurement": "reduction of hydroxyl damage to the DNA", "setting": "cells", "result": 24, "unit": "%"},
      {"measurement": "ingested amount absorbed in the human gastrointestinal tract", "setting": "[2]", "result": "≤ 15", "unit": "%"}
    ]},
    {"smiles": "O=c1c(O)c(-c2ccc(O)c(O)c2)oc2cc(O)cc(O)c12", "note": "[quercetin]", "values": [
      {"measurement": "bioavailability", "setting": "[3]", "result": "1-5%"}
    ]}
  ]
}
